In this assay the target is T1, Human prostaglandin E2 receptor 4 (EP4) (Homo sapiens, UniProt P35408).
T1 construct: expressed in transfected cells; host or cells: HEK293 cells transduced with EP4 BacMam virus
T1 sequence (P35408 whole entry): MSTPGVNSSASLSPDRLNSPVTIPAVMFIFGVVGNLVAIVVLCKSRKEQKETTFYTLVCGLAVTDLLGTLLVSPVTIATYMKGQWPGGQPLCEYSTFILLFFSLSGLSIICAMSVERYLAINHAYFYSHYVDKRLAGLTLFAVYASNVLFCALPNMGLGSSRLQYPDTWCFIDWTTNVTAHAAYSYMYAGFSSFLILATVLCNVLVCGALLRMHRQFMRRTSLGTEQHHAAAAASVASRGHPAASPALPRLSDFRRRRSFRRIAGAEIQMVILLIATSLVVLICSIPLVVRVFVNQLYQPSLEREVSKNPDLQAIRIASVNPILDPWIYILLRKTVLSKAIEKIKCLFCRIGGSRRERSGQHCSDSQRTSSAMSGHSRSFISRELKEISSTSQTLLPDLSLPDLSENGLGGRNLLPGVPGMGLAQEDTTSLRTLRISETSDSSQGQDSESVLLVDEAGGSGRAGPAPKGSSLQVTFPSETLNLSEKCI
Put plainly: cAMP Gs Functional Assay (HTRF cAMP dynamic-2), antagonism of PGE2. It is filed as cell-based. The following applies: HEK293 cells transfected with EP4 BacMam virus; PGE2 challenge at EC80 (7 nM); pIC50 converted to functional pKb with a modified Cheng Prussoff equation; read-out: Human EP4 fpKb (converted). The essentials:
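HEK293 cells transiently expressing human EP4 via BacMam (36 h), preincubated with compound 30 min at 37 °C in DMEM + 0.5 mM IBMX, 5000 cells/well, then challenged with EC80 PGE2 (7 nM). cAMP read by HTRF; pIC50 converted to pKb by modified Cheng-Prusoff using agonist EC50 and challenge concentration.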
On to `O=C(O)c1ccc(C2(NC(=O)C(OCc3ccc(F)c(F)c3)C3CCC3)CC2)cc1` (centres unmarked) [Example 97, 4-(1-(2-cyclobutyl-2-((3,4-difluorobenzyl)oxy)acetamido)cyclopropyl)benzoic acid], for which the Ki was 12.6 nM. On to `O=C(O)c1ccc(C2(NC(=O)C(OCc3cccc(Cl)c3)C3CCC3)CC2)cc1` (centres unmarked) [Example 98, 4-(1-(2-((3-chlorobenzyl)oxy)-2-cyclobutylacetamido)cyclopropyl)benzoic acid], for which the Ki is 1.48 nM. As for `O=C(O)c1ccc(C2(NC(=O)C(OCc3cccc(OC(F)F)c3)C3CCC3)CC2)cc1` (centres unmarked) [Example 99, 4-(1-(2-cyclobutyl-2-((3-(difluoromethoxy)benzyl)oxy)acetamido)cyclopropyl)benzoic acid], the Ki is 3.31 nM. As for `O=C(O)c1ccc(C2(NC(=O)[C@@H](OCc3cccc(OC(F)F)c3)C3CCC3)CC2)cc1` [Example 100, (S)-4-(1-(2-cyclobutyl-2-((3-(difluoromethoxy)benzyl)oxy)acetamido)cyclopropyl)benzoic acid], the Ki was 15.5 nM.

For the molecule `O=C(O)c1ccc(C2(NC(=O)[C@H](OCc3cccc(OC(F)F)c3)C3CCC3)CC2)cc1` [Example 101, (R)-4-(1-(2-cyclobutyl-2-((3-(difluoromethoxy)benzyl)oxy)acetamido)cyclopropyl)benzoic acid], the Ki was 0.851 nM.

The record behind these values is patent US12391641B2, “Prostaglandin EP4 receptor antagonist compounds” (NXERA PHARMA UK LIMITED, priority 2019, dated 2025).
